Laboratory results as given in patent US20110008302A1, “Compositions and methods for immortalizing cells and screening for anti-cancer agents” (priority 2007, published 2011).

Columns and labels:
[1] = tested on: MEFs; test: Senescence of MEFs after Ndy1 siRNA (cell counting, β-galactosidase staining); assay type: cell-based, mouse
Experimental: (§1) MEFs overexpressing Ndy1 or Ndy2 and MEFs in which Ndy1 was knocked down with siRNA (1433-[…]-1454, SEQ ID NO: 1), were monitored for senescence by light microscopy and β-galactosidase staining and by cell counting at each passage. Transfection of siRNA was carried out using Lipofectamine 2000 (Invitrogen; Carlsbad, Calif.). Knockdown of Ndy1 was confirmed by Western blotting and real time RTPCR.
MEFs transfected with Ndy1 (1433-[…]-1454) or control siRNA (Dharmacon; Chicago, Ill.) were plated in triplicate at 10^5 cells per well in 6 well dishes, and three days later they were counted, re-transfected and replated at 10^5 cells per well. At day 6, cells were photographed, counted and stained for the β-galactosidase (Pierce #9860; Rockford, Ill.). β-galactosidase staining of the cells infected with the retroviral constructs and the siRNA-treated cells was performed using X-gal and a β-galactosidase staining kit (Pierce #9860).
To determine whether endogenous Ndy1 is a physiological regulator of senescence, passage 3 wild type MEFs and passage-8 MEFs overexpressing Ndy1 were transfected with Ndy1 or control siRNA. […] The transfected cells were passaged twice, and cell proliferation was monitored by counting the cells at each passage. Cell morphology and β-galactosidase staining were recorded after the second passage (FIG. 10 panel B, FIG. 10 panel C and FIG. 10 panel D). […]

[2] = tested on: MEFs; test: FGF-2-induced proliferation and migration of MEFs (MTT, transwell filter, wound healing); assay type: cell-based, mouse
From the text: FGF-2 stimulation induces both proliferation and migration in various cell types. To determine the role of Ndy1 in FGF-2-driven proliferation and migration, FGF-2 was used to stimulate serum-starved MEFs which were transfected with control RNA, siRNA for Ndy1, miR-101 or with siRNA for Ndy1+miR-101.
To determine cell number, the 3-[4,5-dimethylthiazol-2-yl]-2,5-[…] bromide (MTT, Invitrogen, catalog number M6494) assay was used as described in Polytarchou, C et al., 2005 J. Biol. Chem. 280: 40428-35. Cells were seeded at 2×10^4 cells/well in 24-well tissue culture plates. Twenty-four hours later, cells were serum-starved in medium without FBS for 16 h. Culture medium was replaced with fresh medium containing FGF-2 or control carrier, and the number of cells was determined. Results were confirmed by direct counting of cells under the microscope, using a standard hemocytometer.
Migration assays were performed using 24-well microchemotaxis chambers (Costar) with uncoated polycarbonate membranes (pore size 8 μm). Briefly, cells were harvested and resuspended at 5×10^4 cells/0.15 ml in DMEM containing 0.25% BSA. The bottom chamber of each transwell unit contained 0.6 ml of DMEM supplemented with 0.25% BSA and FGF-2 (20 ng/ml) or carrier as a control. The plates were incubated for 6 h at 37° C. and the filters were fixed with 4% paraformaldehyde in PBS and stained with 0.1% crystal violet solution. The cells that migrated through the filter were counted using a grid and an Optech microscope at 20× magnification.
To assay wound healing, cells were plated on 6-well plates, incubated in DMEM containing 10% FBS until confluence and were serum starved for 16 hours. Wounds were introduced to the confluent cell monolayer with a plastic pipette tip. Wells were washed three times to remove floating cells, and were cultured in DMEM without FBS, in the presence or absence of FGF-2 (20 ng/ml). Twelve and twenty four hours later, the wound area was photographed using a Nikon Phase Contrast-2 ELWD 0.3 Diaphot TMD inverted microscope with a 10× objective and a Spot charge-coupled-device camera (Diagnostic Instruments).

[3] = tested on: Ndy1; test: siRNA knock down in MEFs (Western blot, real time PCR of p16Ink4a, p19Arf, Ezh2, miR-101); assay type: cell-based, mouse
Experimental: At a time point four days after transfection cells were analyzed by Western blotting and total mRNA was collected and analyzed by real-time PCR with primers specific for p16^Ink4a and p19^Arf and primers specific for the long and short forms of Ndy1. (n=3)*p<0.05
as §1
For siRNA. MEFs transfected with Ndy1 (1433-[…]-1454; SEQ ID NO: 51) or control siRNA (Dharmacon) were plated at 10^5 cells per 6 cm dish and 3-4 days later were harvested and analyzed (Pfau, R., et al. (2008) Proc Natl Acad Sci USA 105, 1907-12, incorporated herein by reference in its entirety). MEFs were transfected with the help of Lipofectamine 2000 (Invitrogen). To specifically knock down the short form of Ndy1 the following siRNA were used: 5′-[…]-′3 (SEQ ID NO: 52) which specifically targets the exon1 of the v2 isoform of Ndy1 (NM_013910). siRNAs for Ezh2 (a mix of two siRNAs form Applied Biosystems, #AM16708 siID #157427 and #157426) and Bmi-1 (Santa Cruz Biotechnologies, # sc-29815) were used in a final concentration of 80 nM.

[4] = tested on: TCCSUP, WIDR, SKOV3, T24, NCI522; test: Ndy1 siRNA in cancer cell lines expressing high levels of FGF-2; assay type: cell-based, human; conditions: five of eight high FGF-2 cell lines, 48 hours after transfection
Experimental: RNAs were transfected with Lipofectamine 2000 (Invitrogen, catalog number 11668-027) in MEFs and DharmaFect 3 (Dharmacon, catalog number T-2003-03) in cancer cell lines, according to the manufacturers' instructions (80 nM final concentration).
These eight high FGF-2 expressing cell lines were then transfected with siRNA for Ndy1 or a control siRNA. Nuclear extracts of these cells, collected 48 hours after the transfection, were probed with antibodies specific for each of Ndy1, Ezh2 and CREB. RNA isolated from these cells was analyzed by real time RT-PCR for abundance of microRNA miR-101. […] The five cell lines were obtained from patients having each of transitional cell carcinoma, lung cancer, colon cancer, ovarian cancer, and bladder cancer.

[5] = tested on: MEFs; test: Stimulation of serum-starved MEFs with growth factors or serum (Ezh2, Ndy1, miR-101 levels); assay type: cell-based, mouse
Experimental: MEFs were transfected with control siRNA and stimulated with serum (10%) for 1, 4, 12 and 18 hours. (upper) Nuclear extracts were probed with antibody specific for Ezh2 and for CREB, levels of which served as loading control. (lower) Ndy1 and Ezh2 mRNA levels were measured with real time RT-PCR; GAPDH mRNA levels were used as internal control. Data are expressed as mean±SD.
Serum starved MEFs were stimulated with each of FGF-2 (20 ng/ml), IGF-1 (20 ng/ml), PDGF (20 ng/ml), serum (10%), VEGF (20 ng/ml), EGF (20 ng/ml) or TNFα (50 ng/ml). Nuclear extracts were probed with antibody specific for Ezh2 and for CREB, levels of which served as loading control.
Data are expressed as mean±SD.
MEFs transfected with control siRNA were stimulated with FGF-2 for 1, 4, 12 or 18 hours. (upper) Nuclear extracts were probed with antibody specific for Ezh2. CREB levels served as loading control. (middle) Ndy1 and Ezh2 mRNA were measured with real time RT-PCR; GAPDH mRNA levels were used as internal control. Data are expressed as mean±SD. (lower) miR-101 levels were measured with real time RT-PCR; U6 small nuclear RNA levels were used as internal control. Data are expressed as mean±SD.
For stimulation with FGF-2 (Cell signalling, catalog number 8910), IGF-1 (R&D Systems, catalog number 791-MG), PDGF (Cell signalling, catalog number 9909), VEGF (R&D systems, catalog number 493-MV), EGF (R&D systems, catalog number 236-EG), TNFα (Cell Signalling, catalog number 2169), cells were serum starved for 16 hours and growth factors were added at a final concentration of 20 ng/ml each, for 24 hours.
To identify a pathway regulating Ezh2 expression via the Ndy1/miR-101 axis, serum-starved MEFs were stimulated with FGF-2, IGF-1, PDGF, EGF, VEGF, TNFα or serum and were examined for expression of Ezh2, Ndy1 and miR-101 before and 24 hours after stimulation. […] This was confirmed with analyses in which FGF-2 was used to stimulate serum-starved MEFs transfected with a control siRNA or siRNA for Ndy1 (FIG. 36).

[6] = tested on: Human Umbilical cord Vein Endothelial Cells; test: In vitro tube formation assay; assay type: cell-based; conditions: HUVECs, FGF-2 20 ng/ml, 6 h
Experimental: HUVECs were transduced with a myc.Ezh2 expression construct, or with the empty vector (EV) and were subsequently transduced with either shRNA for Ndy1 or with a lentiviral-based control shRNA. (upper-first row) Tube formation on Cultrex-RGF-BME without FGF-2. (upper-second row) Tube formation on Cultrex-RGF-BME in the presence of 20 ng/ml FGF-2. (upper-third row) Tube formation on reduced-growth factor-Matrigel in the presence of 5 μM of the angiogenesis inhibitor sulphoraphane. (lower) Quantitation of tube formation was performed with the Angioquant software. Relative tube formation was calculated as the ratio of total capillary tube length in cells with or without FGF-2 normalized to total capillary tube length of EV cells without FGF-2 and set to 1 for total capillary tube length of EV cells without FGF-2. Data are expressed as mean±SD.
HUVECs were then transduced with a pBabe-based retrovirus construct of myc-Ezh2. Cells transduced with the empty pBabe vector (EV) were used as a negative control. […]
The in vitro tube formation assay was performed using the In Vitro Angiogenesis Assay Kit (Trevigen, catalog number 3470-096-K). […] After 6 h of incubation at 37° C., the medium was removed, the cells were fixed and stained with Calcein AM, and the total length of capillary tubes was measured in the total area of the wells using image analysis software (Angioquant). […]

[7] = MEFs cultured under standard conditions
[8] = serum-starved MEFs transfected with control RNA
[9] = MEFs transfected with control siRNA, FGF-2 for 1, 4, 12 or 18 hours
[10] = serum-starved MEFs, 24 hours after stimulation

## 1433-GUGGACUCACCUUACCGAAUU-1454 [Ndy1 siRNA]
[1]
  senescence: promote senescence
[2]; MEFs overexpressing myc.Ezh2
  FGF-2 driven proliferation: no effect
  directional and random FGF-2 driven cell motility: remained unaffected
[2]; MEFs, 48 hour time point under FGF-2
  FGF-2-induced Ezh2 upregulation: sufficient to block
[2]; serum-starved MEFs stimulated with FGF-2
  FGF-2 effect on proliferation and migration: greatly limited
[3]; [7]
  expression of Ezh2: down-regulates, slightly
  expression of miR-101: does not affect
[3]; passage 2 MEFs, transient knock down, 4 days
  p16Ink4a (Western blot): relatively slight upregulation
[3]; passage 3 MEFs, four days after transfection
  increase of expression of p16Ink4a: about 2.3 times
[3]; passage 3 MEFs, four days after transfection (FIG. 17 panel B)
  expression of Ezh2: decreases
[3]; passage 3 wild type MEFs and passage-8 MEFs overexpressing Ndy1
  endogenous and exogenous Ndy1 (Western blotting): downregulation
[4]
  Ezh2: downregulated
  expression of miR-101: upregulating
[5]; MEFs transfected with siRNA for Ndy1, serum stimulation
  serum-stimulated Ezh2 upregulation: not affected

## FGF-2: Fibroblast growth factor-2 (FGF-2) or basic fibroblast growth factor
[2]; [8]
  directional and random migration: increase
  proliferation rate: increase
[6]
  total length of the capillary tubes formed: increase
[5]; [9]
  Ezh2: upregulates
  Ndy1: upregulates
  miR-101: down-regulates
[5]; [10]
  expression of Ndy1: promoted
  level at which Ezh2 expression is induced: primarily at the protein level
  miR-101: downregulating
[5]; serum-starved MEFs, 24 hours after stimulation, 20 ng/ml (serum 10%)
  Ezh2 expression: significantly upregulated
